Source: patent US20160168119A1, “AUTOTAXIN INHIBITORS” (Novartis AG, priority 2013, published 2016)
Where two headings read alike, the source gives them in different places.

Molecular target: T1, Recombinant human ATX (Homo sapiens, UniProt Q13822)
T1 construct: made in house; host or cells: human embryonic kidney (HEK) cells
Test: ATX inhibition assay (choline release, Amplex Red fluorescence)
Type: biochemical
Procedure: Reagents—LPC (oleoyl (18:1)) was purchased from Avanti Polar Lipids (Alabaster, Ala.) and solubilized in methanol to 20 mM. Amplex Red was obtained from Invitrogen Life Technologies (Paisley, UK) and dissolved in DMSO to 10 mM. Choline oxidase and horseradish peroxidase (HRP) were obtained from Sigma Aldrich (Dorset, UK) and dissolved in HBSS to 20 U/ml and 200 U/ml respectively. All reagents were stored at −20° C. in single use aliquots. All experimental measurements were performed in assay buffer made up immediately prior to use (HBSS, 0.01% BSA essentially fatty acid free).
PerkinElmer EnVision (Fluorescence Intensity/Absorbance Monochromator) or Tecan Infinite 200 PRO series plate reader was used to detect change in fluorescent intensity.
Assessing ATX inhibition—ATX activity was determined by measurement of released choline in reactions containing ATX (10 nM), choline oxidase (0.1 U/ml), HRP (100 U/ml), amplex red (50 μM) and LPC 18:1 (10 μM). Compounds of the invention were prepared as 10 point serial dilutions from 1 μM in duplicate and pre-incubated with ATX at 37° C. for 20 minutes prior to the addition of remaining reagents. The liberated choline was measured from changes in fluorescence intensity (λex 530 nm, λem 590 nm) of the product resurofin at 37° C. every 2 minutes over a 40-minute period. ATX activity was measured as a slope of the linear portion of the progress curve, typically between 14 to 24 minutes.
Data analysis—Slope data was exported to Graphpad prism (Graphpad software, San Diego, Calif.) where data was fitted to equation 1.
Y=Bottom+(Top−Bottom)/(1+10̂((LogIC50−X)*HillSlope)) Equation 1: […]

[1] = ATX 10 nM, LPC 18:1 10 μM, pre-incubated 20 minutes at 37° C., mean of n≧2, read-out: IC50

Row | Compound | IC50 [1] | IC50
1 | Cc1nnn(Cc2cc(Cl)ccc2/C=C/C(=O)N(C)CC2CCN(C(=O)OC(C)(C)C)CC2)n1 [Example 1.1, (E)-tert-Butyl 4-((3-(4-chloro-2-((5-methyl-2H-tetrazol-2-yl)methyl)phenyl)-N-methylacrylamido)methyl)piperidine-1-carboxylate] | 14 nM | –
2 | CCN(C(=O)/C=C/c1ccc(C(F)(F)F)cc1Cn1nnc(C)n1)C1CCN(C(=O)OC(C)(C)C)CC1 [Example 1.2, (E)-tert-Butyl-4-(N-ethyl-3-(2-((5-methyl-2H-tetrazol-2-yl)methyl)-4-(trifluoromethyl)phenyl)acrylamido)piperidine-1-carboxylate] | 20 nM | –
3 | CCN(Cc1ccncc1)C(=O)/C=C/c1ccc(Cl)cc1Cn1nnc(C)n1 [Example 2.1, (E)-3-(4-Chloro-2-((5-methyl-2H-tetrazol-2-yl)methyl)phenyl)-N-ethyl-N-(pyridin-4-ylmethyl)acrylamide] | 64 nM | –
4 | Cc1csc(CN(C)C(=O)/C=C/c2ccc(Cl)cc2Cn2nnc(C)n2)n1 [Example 2.2, (E)-3-(4-Chloro-2-((5-methyl-2H-tetrazol-2-yl)methyl)phenyl)-N-methyl-N-((4-methylthiazol-2-yl)methyl)acrylamide] | 74 nM | –
5 | Cc1cc(CN(C)C(=O)/C=C/c2ccc(Cl)cc2Cn2nnc(C)n2)on1 [Example 2.3, (E)-3-(4-Chloro-2-((5-methyl-2H-tetrazol-2-yl)methyl)phenyl)-N-methyl-N-((3-methylisoxazol-5-yl)methyl)acrylamide] | 73 nM | –
6 | CCN(CCOC)C(=O)/C=C/c1ccc(Cl)cc1Cn1nnc(C)n1 [Example 2.4, (E)-3-(4-Chloro-2-((5-methyl-2H-tetrazol-2-yl)methyl)phenyl)-N-ethyl-N-(2-methoxyethyl)acrylamide] | 50 nM | –
7 | CCN(CC(O)c1cccc(O)c1)C(=O)/C=C/c1ccc(Cl)cc1Cn1nnc(C)n1 (centres unmarked) [Example 2.5, (E)-3-(4-Chloro-2-((5-methyl-2H-tetrazol-2-yl)methyl)phenyl)-N-ethyl-N-(2-hydroxy-2-(3-hydroxyphenyl)ethyl)acrylamide] | 94 nM | –
8 | Cc1nnn(Cc2cc(Cl)ccc2/C=C/C(=O)N(C)CC2CC(=O)N(C(C)(C)C)C2)n1 (centres unmarked) [Example 2.6, (E)-N-((1-(tert-Butyl)-5-oxopyrrolidin-3-yl)methyl)-3-(4-chloro-2-((5-methyl-2H-tetrazol-2-yl)methyl)phenyl)-N-methylacrylamide] | 52 nM | –
9 | Cc1nnn(Cc2cc(Cl)ccc2/C=C/C(=O)N(C)CC2CCCO2)n1 (centres unmarked) [Example 2.7, (E)-3-(4-Chloro-2-((5-methyl-2H-tetrazol-2-yl)methyl)phenyl)-N-methyl-N-((tetrahydrofuran-2-yl)methyl)acrylamide] | 183 nM | –
10 | Cc1nnn(Cc2cc(C(F)(F)F)ccc2/C=C/C(=O)N(C)CC2CCN(C(=O)c3ccc(F)cc3)CC2)n1 [Example 3, (E)-N-((1-(4-Fluorobenzoyl)piperidin-4-yl)methyl)-N-methyl-3-(2-((5-methyl-2H-tetrazol-2-yl)methyl)-4-(trifluoromethyl)phenyl)acrylamide] | 10 nM | –
11 | Cc1nnn(Cc2cc(C(F)(F)F)ccc2/C=C/C(=O)N(C)CC2CCN(S(=O)(=O)C3CC3)CC2)n1 [Example 4.1, (E)-N-((1-(Cyclopropylsulfonyl)piperidin-4-yl)methyl)-N-methyl-3-(2-((5-methyl-2H-tetrazol-2-yl)methyl)-4-(trifluoromethyl)phenyl)acrylamide] | 4.9 nM | –
12 | Cc1ccc(S(=O)(=O)N2CCC(CN(C)C(=O)/C=C/c3ccc(C(F)(F)F)cc3Cn3nnc(C)n3)CC2)cc1 [Example 4.2, (E)-N-Methyl-3-(2-((5-methyl-2H-tetrazol-2-yl)methy)-4-(trifluoromethyl)phenyl)-N-((1-tosylpiperidin-4-yl)methyl)acrylamide] | 4.5 nM | –
13 | Cc1nnn(Cc2cc(C(F)(F)F)ccc2/C=C/C(=O)N(C)CC2CCN(Cc3ccc(F)cc3)CC2)n1 [Example 5, (E)-N-((1-(4-Fluorobenzyl)piperidin-4-yl)methyl)-N-methyl-3-(2-((5-methyl-2H-tetrazol-2-yl)methyl)-4-(trifluoromethyl)phenyl)acrylamide] | 13 nM | –

Other lines, results leading:

Row | IC50 [1] | IC50 | Compound
14 | 6.9 nM | – | Cc1cc(CN(C)C(=O)/C=C/c2ccc(C(F)(F)F)cc2Cn2nnc(C)n2)n(C)n1 [Example 6.1, (E)-N-((1,3-Dimethyl-1H-pyrazol-5-yl)methyl)-N-methyl-3-(2-((5-methyl-2H-tetrazol-2-yl)methyl)-4-(trifluoromethyl)phenyl)acrylamide]
15 | – | 9 nM | Cc1nnn(Cc2cc(C(F)(F)F)ccc2/C=C/C(=O)N(C)CCOc2ccccc2)n1 [Example 6.2, (E)-N-Methyl-3-(2-((5-methyl-2H-tetrazol-2-yl)methyl)-4-(trifluoromethyl)phenyl)-N-(2-phenoxyethyl)acrylamide]
16 | 40 nM | – | Cc1csc(CN(C)C(=O)/C=C/c2ccc(C(F)(F)F)cc2Cn2nnc(C)n2)n1 [Example 6.3, (E)-N-Methyl-3-(2-((5-methyl-2H-tetrazol-2-yl)methyl)-4-(trifluoromethyl)phenyl)-N-((4-methylthiazol-2-yl)methyl)acrylamide]
17 | 13 nM | – | Cc1nnn(Cc2cc(C(F)(F)F)ccc2/C=C/C(=O)N(C)Cc2nnc(-c3ccccc3)o2)n1 [Example 6.4, (E)-N-Methyl-3-(2-((5-methyl-2H-tetrazol-2-yl)methyl)-4-(trifluoromethyl)phenyl)-N-((5-phenyl-1,3,4-oxadiazol-2-yl)methyl)acrylamide]
18 | 16 nM | – | COc1ccc(CNC(=O)CN(C)C(=O)/C=C/c2ccc(C(F)(F)F)cc2Cn2nnc(C)n2)cc1 [Example 6.5, (E)-N-(2-((4-Methoxybenzyl)amino)-2-oxoethyl)-N-methyl-3-(2-((5-methyl-2H-tetrazol-2-yl)methyl)-4-(trifluoromethyl)phenyl)acrylamide]
19 | 49 nM | – | Cc1nnn(Cc2cc(C(F)(F)F)ccc2/C=C/C(=O)N(C)CCCCc2cccnc2)n1 [Example 6.6, (E)-N-Methyl-3-(2-((5-methyl-2H-tetrazol-2-yl)methyl)-4-(trifluoromethyl)phenyl)-N-(4-(pyridin-3-yl)butyl)acrylamide]
20 | 6 nM | – | Cc1nnn(Cc2cc(C(F)(F)F)ccc2/C=C/C(=O)N(C)Cc2nc(-c3ccccc3)cs2)n1 [Example 6.7, (E)-N-Methyl-3-(2-((5-methyl-2H-tetrazol-2-yl)methyl)-4-(trifluoromethyl)phenyl)-N-((4-phenylthiazol-2-yl)methyl)acrylamide]
21 | 7 nM | – | Cc1nnn(Cc2cc(C(F)(F)F)ccc2/C=C/C(=O)N(C)CC2CC(=O)N(C(C)(C)C)C2)n1 (centres unmarked) [Example 6.8, (E)-N-((1-(tert-Butyl)-5-oxopyrrolidin-3-yl)methyl)-N-methyl-3-(2-((5-methyl-2H-tetrazol-2-yl)methyl)-4-(trifluoromethyl)phenyl)acrylamide]
22 | 5.3 nM | – | Cc1nnn(Cc2cc(C(F)(F)F)ccc2/C=C/C(=O)N(C)Cc2nc(-c3ccccc3)no2)n1 [Example 6.9, (E)-N-Methyl-3-(2-((5-methyl-2H-tetrazol-2-yl)methyl)-4-(trifluoromethyl)phenyl)-N-((3-phenyl-1,2,4-oxadiazol-5-yl)methyl)acrylamide]
23 | 12 nM | – | Cc1nnn(Cc2cc(C(F)(F)F)ccc2/C=C/C(=O)N(C)Cc2nc3ccccc3s2)n1 [Example 6.10, (E)-N-(Benzo[d]thiazol-2-ylmethyl)-N-methyl-3-(2-((5-methyl-2H-tetrazol-2-yl)methyl)-4-(trifluoromethyl)phenyl)acrylamide]
